Measured values taken from patent publication US6451761B1, “N′N′-dichlorinated omega-amino acids and uses thereof” (Queen's University at Kingston, priority 1999, dated 2002).
Like-named read-outs stand apart in the source and are kept apart here.

How the values were obtained:
[1] = Stability on storage and in water or solvents (TLC and NMR monitoring); type: physicochemical
Protocol: Taurine (1.5 g) was suspended in a mixture of methanol (50 mL) and 4 M aqueous hydrochloric acid (25 mL). To this was added in small aliquots 4-6% aqueous sodium hypochlorite (40 mL) with stirring. The taurine dissolved with evolution of gentle heat. After 2 h the solution was concentrated (below 30° C.) to a small volume. Ethanol (200 mL) was added and the precipitated sodium chloride was removed by filtration. This procedure was repeated until no more precipitate formed. After concentration to a small volume of oily residue, 50/50 methanol-ethyl acetate (100 mL) was added, and the mixture was again filtered to remove residual sodium chloride. Upon reconcentration, the residue was treated with 0.04 M aqueous hydrochloric acid in acetone (25 mL). Slow concentration yielded white, iridescent plates, (0.7 g). […] Detection was by spraying with 2% KI-starch (yellow-brown) followed by ethanolic ninhydrin (faintly pink); M.P. 148° C. UV (λmax) 310 nm (ε1.851×10^2, 95% ethanol); ^1Hmr (D2O) 3.05-3.2(2H, m) and 3.95-4.05(2H, m); MS (es−): 191.9(18.76%), 193.8 (13.41%), 195.8(2.83%).
The chlorinaton and desalting methodology was essentially similar to that for taurine. […] Final isolation was from 50/50 (^v/v) diethylether-methanol plus dichloromethane, followed by slow evaporation at approximately 0-4° C. M.P. 197° C.; UV: λmax 308 (ε1.486×10^2, 95% ethanol); ^1Hmr (D2O) δ: 2.05-2.15 (2H, m, αCH2), 2.95-3.05 (2H, m, βCH2), 3.9-4.0 (2H, m, γCH2); MS (es−): 205.9(1.4%), 207.9(0.88%), 210.0(0.31%).
N,N-dichloro-GABA: UV: λmax 308 nm (ε2.974×10^2, 95% ethanol); ^1Hmr (CDCl3) δ: 1.95-2.05 (2H, m,αCH2), 2.4-2.5 (2H, m, βCH2), 3.6-3.75 (2H, m, γCH2). Decomposition in water was about 50% in 3 h at room temperature (TLC monitored). […]
The procedure for the synthesis of N′N′-dichloro-leucine was identical to that for the dichloroGABA. The product is a pale-yellow oil. When stored in dichloromethane, at −10° C.; the compound readily decomposed with an approximate half-life of 1 h.
From the above Examples it is apparent that dichlorination of ω-amino acids yields products which vary considerably in their stability. […] The most important precaution required for stable storage is the removal of all traces of water. […] A yield of between 30-60% was obtained, which can be improved by more efficiently exploiting the fact that primary amines are far less soluble than their chlorinated products in non-polar solvents. Those of ordinary skill in the art will recognize that the methods for isolation of the chlorinated amino acids described here can be extended to other α-carboxyl amino acids, as well as peptides and proteins.

[2] = test system: rat brain amino acid profile; assay: Effect on rat brain amino acid profile; type: in vivo, Sprague-Dawley rats; settings: for % change GABA / % change GLUTAMATE / % change RATIO GLU/TAU / % change RATIO GLY/GLU / % change TAURINE: dichlorotaurine vs taurine (control); for GABA tissue content / GLUTAMATE tissue content / TAURINE tissue content: 10-30 min prior to sacrifice; for GABA tissue content / GLUTAMATE tissue content / TAURINE tissue content / RATIO GLU/TAU / RATIO GLY/GLU: average of three rats
Protocol: Three Sprague-Dawley rats were each injected with taurine (200 mg/kg) (control), and another three Sprague-Dawley rats were each administered dichlorotaurine (200 mg/kg): one at 10 min (i.p.), one at 20 min (i.p.) and one at 30 min (i.v.) prior to sacrifice. The animals were anesthetized with ether and then sacrificied by cardiac perfusion with phosphate buffered saline for 5 min, before the brains were removed at room temp.
Brain regions were dissected by hand on a glass cold plate (4-6° C.). The samples were homogenized in 9× weight by volume of water, then perchloric acid was added to a final concentration of 0.6 M to precipitate proteins. Samples (20 μL) were neutralized with 15 μL 2M KHCO3. The extracts were centrifuged and supernatants were diluted with water 1:100. Amino acid analysis was performed by derivatization with o-phthaldialdehyde followed by liquid chromatography (Varian LC 5000 and Schoeffel FS 970 fluorometer). […] Identification and quantification by peak height was calibrated against a standard amino acid solution.
Data are shown in Table1, below, where each taurine (control) value and dichlorotaurine value is the average of the three respective rats. The amino acid values represent endogenous neural tissue content and not extracellular (release) concentrations. The most pronounced effects of the dichlorotaurine are on the cortex-hippocampus. The data are interpreted as directed towards reduced (↓) excitability. Moreover, the data provide evidence that administration of dichlorotaurine attenuates the pathological consequences of excessive glutamate release, which is known to occur under clinical conditions such as, for example, epilepsy, intractable pain disorders, Huntington's Disease, Parkinson's Disease, and abnormalities associated with CNS trauma (e.g., stroke, spinal cord injury, impact trauma).

mice = settings: for behaviour following injection: mice (20 g), 200 mg/Kg
Protocol: Two other mice (20 g) received dichlorotaurine (0.1 mL=100 mg/Kg) s.c. at 60 min intervals for three hours.

[3] = frontal cortex, rats, 200 mg/kg
[4] = mice, 100 mg/Kg s.c. at 60 min intervals for three hours

O=C(O)CCCN(Cl)Cl [N,N-dichloro-GABA, N,N-dichloro-γ-aminobutyric Acid]
relative stability when in contact with water [1]: the least stable
Decomposition in water ([1]; 3 h at room temperature, TLC monitored): about 50%

O=C(O)CCN(Cl)Cl [N,N-dichloro-β-alanine, N′N′-dichloro-β-alanine]
relative stability in water or 95% ethanol [1]: More stable than N,N-dichloro-GABA

CC(C)C[C@@H](C(=O)O)N(Cl)Cl [N′N′-dichloro-leucine, N,N-dichloro-L-leucine, reference compound]
relative stability when in contact with water ([1]; in contact with water): the least stable
half-life ([1]; stored in dichloromethane at −10° C., read-out: half-life of decomposition (converted)): ~1 h

O=S(=O)(O)CCN(Cl)Cl [dichlorotaurine, N′N′-dichlorotaurine]
interpretation ([2]; GABA changes): ↓ excitability
interpretation ([2]; GLUTAMATE changes): ↓ excitability
interpretation ([2]; RATIO GLU/TAU changes): ↓ excitability
interpretation ([2]; RATIO GLY/GLU changes): ↓ excitability
interpretation ([2]; TAURINE changes): ↓ excitability
% change GABA ([2]; brain stem): — (±15% considered non-significant: no change)
% change GLUTAMATE ([2]; brain stem): — (±15% considered non-significant: no change)
% change RATIO GLU/TAU ([2]; brain stem): −33%
% change RATIO GLY/GLU ([2]; brain stem): +19%
% change TAURINE ([2]; brain stem): —* (±15% considered non-significant: no change)
GABA tissue content ([2]; brain stem, rats, 200 mg/kg): 2.32 nmoles/mg wet weight
GLUTAMATE tissue content ([2]; brain stem, rats, 200 mg/kg): 7.19 nmoles/mg wet weight
TAURINE tissue content ([2]; brain stem, rats, 200 mg/kg): 2.63 nmoles/mg wet weight
RATIO GLU/TAU ([2]; brain stem, rats, 200 mg/kg): 2.50
RATIO GLY/GLU ([2]; brain stem, rats, 200 mg/kg): 1.55
% change GABA ([2]; cerebellum): — (±15% considered non-significant: no change)
% change GLUTAMATE ([2]; cerebellum): — (±15% considered non-significant: no change)
% change RATIO GLU/TAU ([2]; cerebellum): — (±15% considered non-significant: no change)
% change RATIO GLY/GLU ([2]; cerebellum): — (±15% considered non-significant: no change)
% change TAURINE ([2]; cerebellum): — (±15% considered non-significant: no change)
GABA tissue content ([2]; cerebellum, rats, 200 mg/kg): 1.97 nmoles/mg wet weight
GLUTAMATE tissue content ([2]; cerebellum, rats, 200 mg/kg): 10.29 nmoles/mg wet weight
TAURINE tissue content ([2]; cerebellum, rats, 200 mg/kg): 5.36 nmoles/mg wet weight
RATIO GLU/TAU ([2]; cerebellum, rats, 200 mg/kg): 2.01
RATIO GLY/GLU ([2]; cerebellum, rats, 200 mg/kg): 0.46
% change GABA ([2]; frontal cortex): +29%
% change GLUTAMATE ([2]; frontal cortex): −20%
% change RATIO GLU/TAU ([2]; frontal cortex): −33%
% change RATIO GLY/GLU ([2]; frontal cortex): +42%
% change TAURINE ([2]; frontal cortex): +30%
GABA tissue content [2, 3]: 2.93 nmoles/mg wet weight
GLUTAMATE tissue content [2, 3]: 11.90 nmoles/mg wet weight
TAURINE tissue content [2, 3]: 10.00 nmoles/mg wet weight
RATIO GLU/TAU [2, 3]: 1.32
RATIO GLY/GLU [2, 3]: 0.40
% change GABA ([2]; hippocampus): +32%
% change GLUTAMATE ([2]; hippocampus): — (±15% considered non-significant: no change)
% change RATIO GLU/TAU ([2]; hippocampus): −24%
% change RATIO GLY/GLU ([2]; hippocampus): +20%
% change TAURINE ([2]; hippocampus): +52%
GABA tissue content ([2]; hippocampus, rats, 200 mg/kg): 3.73 nmoles/mg wet weight
GLUTAMATE tissue content ([2]; hippocampus, rats, 200 mg/kg): 15.76 nmoles/mg wet weight
TAURINE tissue content ([2]; hippocampus, rats, 200 mg/kg): 11.22 nmoles/mg wet weight
RATIO GLU/TAU ([2]; hippocampus, rats, 200 mg/kg): 1.45
RATIO GLY/GLU ([2]; hippocampus, rats, 200 mg/kg): 0.43
brain region of the most pronounced effects ([2]; rats, 200 mg/kg): cortex-hippocampus
relative stability when in contact with water [1]: the most
stability when dry [1]: reasonably stable for up to a month
storage stability [1]: stable for at least one month without appreciable decomposition
decomposition in 95% ethanol ([1]; 95% ethanol, over 48 h): little or no decomposition
stable in water ([1]; water, ambient temperature, TLC and NMR monitoring): at least 3 h
onset of severe ataxia, laboured breathing and grooming behaviour towards the site of injection (mice; male mice (20 g), 200 mg/Kg i.p.): ≤ 5 min
behaviour following injection (mice): very quiet, showed strongly reduced responsiveness to environmental stimuli, and reduced mobility
Onset of sedation following the first injection (mice; [4]): 5 min
effect of the two subsequent injections on behaviour (mice; [4]): did not aggravate nor modify the tranquil behaviour
time after last injection to start of return to normal behaviour (mice; [4]): Two to three hours
Observation for the next 24 h (mice; mouse, in vivo, sc, 100 mg/kg): did not reveal any abnormalities

NCCS(=O)(=O)O [taurine, reference compound]
GABA tissue content ([2]; brain stem, rats, 200 mg/kg): 2.25 nmoles/mg wet weight
GLUTAMATE tissue content ([2]; brain stem, rats, 200 mg/kg): 8.20 nmoles/mg wet weight
TAURINE tissue content ([2]; brain stem, rats, 200 mg/kg): 2.29 nmoles/mg wet weight
RATIO GLU/TAU ([2]; brain stem, rats, 200 mg/kg): 3.73
RATIO GLY/GLU ([2]; brain stem, rats, 200 mg/kg): 1.30
GABA tissue content ([2]; cerebellum, rats, 200 mg/kg): 2.25 nmoles/mg wet weight
GLUTAMATE tissue content ([2]; cerebellum, rats, 200 mg/kg): 11.32 nmoles/mg wet weight
TAURINE tissue content ([2]; cerebellum, rats, 200 mg/kg): 5.38 nmoles/mg wet weight
RATIO GLU/TAU ([2]; cerebellum, rats, 200 mg/kg): 2.15
RATIO GLY/GLU ([2]; cerebellum, rats, 200 mg/kg): 0.48
GABA tissue content [2, 3]: 2.28 nmoles/mg wet weight
GLUTAMATE tissue content [2, 3]: 15.04 nmoles/mg wet weight
TAURINE tissue content [2, 3]: 7.67 nmoles/mg wet weight
RATIO GLU/TAU [2, 3]: 1.98
RATIO GLY/GLU [2, 3]: 0.28
GABA tissue content ([2]; hippocampus, rats, 200 mg/kg): 2.83 nmoles/mg wet weight
GLUTAMATE tissue content ([2]; hippocampus, rats, 200 mg/kg): 13.82 nmoles/mg wet weight
TAURINE tissue content ([2]; hippocampus, rats, 200 mg/kg): 7.38 nmoles/mg wet weight
RATIO GLU/TAU ([2]; hippocampus, rats, 200 mg/kg): 1.91
RATIO GLY/GLU ([2]; hippocampus, rats, 200 mg/kg): 0.36
behaviour following injection (mice): normal behaviour
